According to patent US9809623B2, “α4β7 peptide monomer and dimer antagonists” (Protagonist Therapeutics, Inc., priority 2014, dated 2017):
Numbered stars: 1 amine (or outer) side, 2 acyl side, 3 side chain; on linkers, the order of the positions; unused ones are H or OH. Bridge positions count the residues as written; N and C are the ends. Square brackets hold non-standard residues; d marks the D form. Peptide text beside a SMILES is read from it. I, II: the chains in the order shown. Phe(4-tBu) = CC(C)(C)c1ccc(C[C@H](N)C(=O)O)cc1; 2Nal = N[C@@H](Cc1ccc2ccccc2c1)C(=O)O; Diglycolyl = O=C(COCC(=O)[*:2])[*:1]; NMeR = CN[C@@H](CCCNC(=N)N)C(=O)O; β3hE = N[C@@H](CCC(=O)O)CC(=O)O; Pen = CC(C)(S)[C@H](N)C(=O)O; dNMeK = CN[C@H](CCCCN)C(=O)O

Key:
[1] = Dithiothreitol (DTT) Redox Stability Assay; assay type: physicochemical; settings: Table 4-C, t1/2, 0.5 mM DTT
Procedure, shortened: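 Peptide at 50 μM final in 100 mM Tris-Cl pH 7.5 was exposed to 0.5 mM DTT at room temperature. Aliquots taken at 20, 40, 80 and 120 min were quenched with acetic acid and analysed by reverse-phase HPLC at 220 nm for remaining oxidized parent. Half-lives were obtained by first-order exponential decay fit.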

[2] = Simulated Intestinal Fluid (SIF) Stability Assay; assay type: in vitro ADME, porcine; settings: t1/2; for half-life at 22 μM: pig, simulated intestinal fluid (SIF) with 1% porcine pancreatin, pH 6.5, Table 4-C, > means assay stopped at that time, read-out: SIF (porcine) Min
Procedure, shortened: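 Peptides (22 μM final) incubated at 37 °C in FASSIF (pH 6.5) with 1% porcine pancreatin; aliquots quenched at various times and analyzed by LC-MS/MS against internal standard. Half-life from first-order exponential decay fit of percent remaining.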

[3] = Simulated Gastric Fluid (SGF) Assay; assay type: in vitro ADME; settings: pig, simulated gastric fluid (SGF) with porcine pepsin, pH 2; Table 4-C, t1/2
Procedure, shortened: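 Peptides at 20 μM final in simulated gastric fluid (NaCl, porcine pepsin, HCl; pH 2) at 37° C with shaking. Samples taken at 0, 15, 30 and 60 min, quenched in acetonitrile/0.1% formic acid and quantified by LC-MS/MS against internal standard, relative to time 0. Half-life from first-order exponential decay fit.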

α4β1 = α4β1 (Homo sapiens, UniProt P05556+P13612); assay: α4β1-VCAM Cell Adhesion Assay (Jurkat E6.1 human cells); assay type: cell-based; parameters: host or cells: Jurkat E6.1 human T cells; settings: Table 4-B; read-out: Cell Adhesion α4β1 IC50
Procedure, shortened: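 Jurkat E6.1 cells in DMEM with 0.1% BSA, 10 mM HEPES pH 7 and 1 mM MnCl2 were added (200,000/well) with serially diluted peptides to rh VCAM-1-Fc-coated wells (400 ng/well) for 30-45 min at 37 °C. Adherent cells after washing were quantified by MTT, absorbance 570 nm, with no-cell background subtracted for dose response.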

α4β1, sequence (P13612 34-1032): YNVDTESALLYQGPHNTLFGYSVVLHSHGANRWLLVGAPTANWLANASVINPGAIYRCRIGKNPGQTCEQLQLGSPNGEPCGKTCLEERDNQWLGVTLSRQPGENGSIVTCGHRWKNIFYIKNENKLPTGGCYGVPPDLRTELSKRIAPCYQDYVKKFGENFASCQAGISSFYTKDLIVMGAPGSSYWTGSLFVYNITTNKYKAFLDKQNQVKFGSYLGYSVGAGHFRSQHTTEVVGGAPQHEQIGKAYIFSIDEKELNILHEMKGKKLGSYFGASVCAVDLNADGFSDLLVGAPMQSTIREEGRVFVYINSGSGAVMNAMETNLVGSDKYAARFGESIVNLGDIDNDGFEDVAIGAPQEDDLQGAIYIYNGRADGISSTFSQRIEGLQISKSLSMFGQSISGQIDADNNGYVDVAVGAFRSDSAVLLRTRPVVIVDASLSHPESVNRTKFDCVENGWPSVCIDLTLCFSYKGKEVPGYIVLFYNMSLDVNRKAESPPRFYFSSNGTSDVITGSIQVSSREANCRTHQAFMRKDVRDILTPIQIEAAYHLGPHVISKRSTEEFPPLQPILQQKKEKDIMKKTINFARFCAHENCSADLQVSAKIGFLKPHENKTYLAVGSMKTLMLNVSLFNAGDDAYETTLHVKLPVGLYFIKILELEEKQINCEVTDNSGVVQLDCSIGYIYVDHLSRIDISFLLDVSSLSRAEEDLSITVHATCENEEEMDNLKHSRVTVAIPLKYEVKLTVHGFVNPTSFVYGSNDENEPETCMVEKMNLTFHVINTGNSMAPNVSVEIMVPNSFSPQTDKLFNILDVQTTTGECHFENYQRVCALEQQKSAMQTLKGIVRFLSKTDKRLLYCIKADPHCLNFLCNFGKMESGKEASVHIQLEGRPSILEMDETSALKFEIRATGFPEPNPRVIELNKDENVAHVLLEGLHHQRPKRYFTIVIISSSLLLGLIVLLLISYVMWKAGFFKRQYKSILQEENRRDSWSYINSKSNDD
α4β1, sequence (P05556 21-798): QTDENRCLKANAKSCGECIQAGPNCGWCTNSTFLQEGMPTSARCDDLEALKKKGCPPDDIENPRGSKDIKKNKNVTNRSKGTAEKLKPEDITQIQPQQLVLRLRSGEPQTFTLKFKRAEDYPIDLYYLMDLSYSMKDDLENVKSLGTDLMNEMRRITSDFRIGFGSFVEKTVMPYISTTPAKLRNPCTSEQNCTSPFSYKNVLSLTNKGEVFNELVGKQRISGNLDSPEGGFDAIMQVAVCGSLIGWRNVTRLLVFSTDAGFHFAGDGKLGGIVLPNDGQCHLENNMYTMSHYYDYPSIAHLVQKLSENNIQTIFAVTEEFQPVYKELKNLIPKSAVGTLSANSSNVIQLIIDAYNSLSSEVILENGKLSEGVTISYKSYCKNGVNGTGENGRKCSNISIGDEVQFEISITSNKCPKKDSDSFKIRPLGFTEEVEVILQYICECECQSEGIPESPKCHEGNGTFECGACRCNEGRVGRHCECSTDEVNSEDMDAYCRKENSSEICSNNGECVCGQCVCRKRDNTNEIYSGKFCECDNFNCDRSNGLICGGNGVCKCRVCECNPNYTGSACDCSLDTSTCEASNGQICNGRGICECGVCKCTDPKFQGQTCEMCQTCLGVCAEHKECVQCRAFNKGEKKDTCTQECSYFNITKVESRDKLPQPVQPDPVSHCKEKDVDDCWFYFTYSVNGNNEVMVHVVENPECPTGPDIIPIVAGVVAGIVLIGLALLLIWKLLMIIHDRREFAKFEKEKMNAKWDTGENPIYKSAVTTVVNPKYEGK

SMILES	DTT Min [1]	half-life at 22 μM [2]	half-life at 20 μM [3]	IC50 (α4β1)	SIF (porcine), printed in hr in the cell ([2]; Table 4-C)
CC(=O)N[C@H]1CSSC(C)(C)[C@@H](C(=O)N[C@@H](Cc2c[nH]c3ccccc23)C(=O)N[C@H](CCCCNC(=O)COCC(=O)NCCCC[C@@H](NC(=O)[C@H](Cc2c[nH]c3ccccc23)NC(=O)[C@H]2NC(=O)[C@H](CC(C)C)NC(=O)[C@H]([C@@H](C)O)NC(=O)[C@H](CC(=O)O)NC(=O)[C@H](CO)NC(=O)[C@H](CCCNC(=N)N)N(C)C(=O)[C@@H](NC(C)=O)CSSC2(C)C)C(N)=O)C(N)=O)NC(=O)[C@H](CC(C)C)NC(=O)[C@H]([C@@H](C)O)NC(=O)[C@H](CC(=O)O)NC(=O)[C@H](CO)NC(=O)[C@H](CCCNC(=N)N)N(C)C1=O [compound 204, (Ac-C-N-Me-R-S-D-T-L-Pen-W-k-NH2)2-DIG] (I: Ac-C[NMeR]SDTL[Pen]W[dK]-NH2 / II: Ac-C[NMeR]SDTL[Pen]W[dK]-NH2; disulfide I:1-I:7, II:1-II:7 (inferred); linker I:9-II:9 via Diglycolyl (inferred))	27 min	> 6 h	> 6 h	> 100 µM	–
CC(=O)N[C@@H]1C(=O)N(C)[C@@H](CCCNC(=N)N)C(=O)N[C@@H](CO)C(=O)N[C@@H](CC(=O)O)C(=O)N[C@@H]([C@@H](C)O)C(=O)N[C@@H](CC(C)C)C(=O)N[C@H](C(=O)N[C@@H](Cc2c[nH]c3ccccc23)C(=O)N[C@H](CCCCNC(=O)COCC(=O)NCCCC[C@@H](NC(=O)[C@H](Cc2c[nH]c3ccccc23)NC(=O)[C@H]2NC(=O)[C@H](CC(C)C)NC(=O)[C@H]([C@@H](C)O)NC(=O)[C@H](CC(=O)O)NC(=O)[C@H](CO)NC(=O)[C@H](CCCNC(=N)N)N(C)C(=O)[C@@H](NC(C)=O)C(C)(C)SSC2(C)C)C(N)=O)C(N)=O)C(C)(C)SSC1(C)C [compound 209, (Ac-Pen-N-Me-R-S-D-T-L-Pen-W-k-NH2)2-DIG] (I: Ac-[Pen][NMeR]SDTL[Pen]W[dK]-NH2 / II: Ac-[Pen][NMeR]SDTL[Pen]W[dK]-NH2; disulfide I:1-I:7, II:1-II:7 (inferred); linker I:9-II:9 via Diglycolyl (inferred))	>120 min	> 3 h	> 3 h	> 100 µM	–
CC(=O)N[C@@H]1C(=O)N(C)[C@@H](CCCNC(=N)N)C(=O)N[C@@H](CO)C(=O)N[C@@H](CC(=O)O)C(=O)N[C@@H]([C@@H](C)O)C(=O)N[C@@H](CC(C)C)C(=O)N[C@H](C(=O)N[C@@H](Cc2ccc(C(C)(C)C)cc2)C(=O)N[C@@H](CCC(=O)O)CC(=O)N[C@H](CCCCNC(=O)COCC(=O)NCCCC[C@@H](NC(=O)C[C@H](CCC(=O)O)NC(=O)[C@H](Cc2ccc(C(C)(C)C)cc2)NC(=O)[C@H]2NC(=O)[C@H](CC(C)C)NC(=O)[C@H]([C@@H](C)O)NC(=O)[C@H](CC(=O)O)NC(=O)[C@H](CO)NC(=O)[C@H](CCCNC(=N)N)N(C)C(=O)[C@@H](NC(C)=O)C(C)(C)SSC2(C)C)C(N)=O)C(N)=O)C(C)(C)SSC1(C)C [compound 218, [Ac-Pen-(N-Me-Arg)-Ser-Asp-Thr-Leu-Pen-Phe(4-tBu)-(β-homoGlu)-(D-Lys)-NH2]2-DIG] (I: Ac-[Pen][NMeR]SDTL[Pen][Phe(4-tBu)][β3hE][dK]-NH2 / II: Ac-[Pen][NMeR]SDTL[Pen][Phe(4-tBu)][β3hE][dK]-NH2; disulfide I:1-I:7, II:1-II:7; linker I:10-II:10 via Diglycolyl)	>120 min	–	> 6 h	> 100 µM	11 h
CC(=O)N[C@@H]1C(=O)N[C@@H](CCCNC(=N)N)C(=O)N[C@@H](CO)C(=O)N[C@@H](CC(=O)O)C(=O)N[C@@H]([C@@H](C)O)C(=O)N[C@@H](CC(C)C)C(=O)N[C@H](C(=O)N[C@H](CCCCNC(=O)COCC(=O)NCCCC[C@@H](NC(=O)[C@@H]2CSSC(C)(C)[C@H](NC(C)=O)C(=O)N[C@@H](CCCNC(=N)N)C(=O)N[C@@H](CO)C(=O)N[C@@H](CC(=O)O)C(=O)N[C@@H]([C@@H](C)O)C(=O)N[C@@H](CC(C)C)C(=O)N2)C(N)=O)C(N)=O)CSSC1(C)C [compound 207, (Ac-Pen-R-S-D-T-L-C-k-NH2)2-DIG] (I: Ac-[Pen]RSDTLC[dK]-NH2 / II: Ac-[Pen]RSDTLC[dK]-NH2; disulfide I:1-I:7, II:1-II:7 (inferred); linker I:8-II:8 via Diglycolyl (inferred))	35 min	< 0.333 h	> 1 h	–	–
CC(=O)N[C@@H]1C(=O)N(C)[C@@H](CCCNC(=N)N)C(=O)N[C@@H](CO)C(=O)N[C@@H](CC(=O)O)C(=O)N[C@@H]([C@@H](C)O)C(=O)N[C@@H](CC(C)C)C(=O)N[C@H](C(=O)N[C@@H](Cc2ccc3ccccc3c2)C(=O)N[C@@H](CCC(=O)O)C(=O)N[C@H](CCCCNC(=O)COCC(=O)NCCCC[C@@H](NC(=O)[C@H](CCC(=O)O)NC(=O)[C@H](Cc2ccc3ccccc3c2)NC(=O)[C@H]2NC(=O)[C@H](CC(C)C)NC(=O)[C@H]([C@@H](C)O)NC(=O)[C@H](CC(=O)O)NC(=O)[C@H](CO)NC(=O)[C@H](CCCNC(=N)N)N(C)C(=O)[C@@H](NC(C)=O)C(C)(C)SSC2(C)C)C(N)=O)C(N)=O)C(C)(C)SSC1(C)C [compound 212, (Ac-Pen-N-Me-R-S-D-T-L-Pen-2-Nal-E-k-NH2)2-DIG] (I: Ac-[Pen][NMeR]SDTL[Pen][2Nal]E[dK]-NH2 / II: Ac-[Pen][NMeR]SDTL[Pen][2Nal]E[dK]-NH2; disulfide I:1-I:7, II:1-II:7 (inferred); linker I:10-II:10 via Diglycolyl (inferred))	>120 min	1.5 h	0.65 h	> 100 µM	–
CC(=O)N[C@@H]1C(=O)N(C)[C@@H](CCCNC(=N)N)C(=O)N[C@@H](CO)C(=O)N[C@@H](CC(=O)O)C(=O)N[C@@H]([C@@H](C)O)C(=O)N[C@@H](CC(C)C)C(=O)N[C@H](C(=O)N[C@@H](Cc2c[nH]c3ccccc23)C(=O)N[C@@H](CCC(=O)O)C(=O)N[C@H](CCCCNC(=O)COCC(=O)NCCCC[C@@H](NC(=O)[C@H](CCC(=O)O)NC(=O)[C@H](Cc2c[nH]c3ccccc23)NC(=O)[C@H]2NC(=O)[C@H](CC(C)C)NC(=O)[C@H]([C@@H](C)O)NC(=O)[C@H](CC(=O)O)NC(=O)[C@H](CO)NC(=O)[C@H](CCCNC(=N)N)N(C)C(=O)[C@@H](NC(C)=O)C(C)(C)SSC2(C)C)C(N)=O)C(N)=O)C(C)(C)SSC1(C)C [compound 217, (Ac-Pen-N-Me-R-S-D-T-L-Pen-W-E-k-NH2)2-DIG] (I: Ac-[Pen][NMeR]SDTL[Pen]WE[dK]-NH2 / II: Ac-[Pen][NMeR]SDTL[Pen]WE[dK]-NH2; disulfide I:1-I:7, II:1-II:7 (inferred); linker I:10-II:10 via Diglycolyl (inferred))	>120 min	2.02 h	> 6 h	> 100 µM	–
CC(=O)N[C@@H]1C(=O)N(C)[C@@H](CCCNC(=N)N)C(=O)N[C@@H](CO)C(=O)N[C@@H](CC(=O)O)C(=O)N[C@@H]([C@@H](C)O)C(=O)N[C@@H](CC(C)C)C(=O)N[C@H](C(=O)N[C@@H](Cc2c[nH]c3ccccc23)C(=O)N[C@H](CCCCN)C(N)=O)C(C)(C)SSC1(C)C [compound 208, Ac-Pen-N-Me-R-S-D-T-L-Pen-W-k-NH2] (Ac-[Pen][NMeR]SDTL[Pen]W[dK]-NH2; disulfide 1-7)	>120 min	> 6 h	> 6 h	–	–
CC(=O)N[C@@H]1C(=O)N(C)[C@@H](CCCNC(=N)N)C(=O)N[C@@H](CO)C(=O)N[C@@H](CC(=O)O)C(=O)N[C@@H]([C@@H](C)O)C(=O)N[C@@H](CC(C)C)C(=O)N[C@H](C(=O)N[C@@H](Cc2c[nH]c3ccccc23)C(=O)N[C@@H](CCC(=O)O)C(=O)N(C)[C@H](CCCCNC(=O)COCC(=O)NCCCC[C@H](C(N)=O)N(C)C(=O)[C@H](CCC(=O)O)NC(=O)[C@H](Cc2c[nH]c3ccccc23)NC(=O)[C@H]2NC(=O)[C@H](CC(C)C)NC(=O)[C@H]([C@@H](C)O)NC(=O)[C@H](CC(=O)O)NC(=O)[C@H](CO)NC(=O)[C@H](CCCNC(=N)N)N(C)C(=O)[C@@H](NC(C)=O)C(C)(C)SSC2(C)C)C(N)=O)C(C)(C)SSC1(C)C [compound 214, [Ac-Pen-(N-Me-Arg)-Ser-Asp-Thr-Leu-Pen-Trp-Glu-(N-Me-D-Lys)-NH2]2-DIG] (I: Ac-[Pen][NMeR]SDTL[Pen]WE[dNMeK]-NH2 / II: Ac-[Pen][NMeR]SDTL[Pen]WE[dNMeK]-NH2; disulfide I:1-I:7, II:1-II:7 (inferred); linker I:10-II:10 via Diglycolyl (inferred))	>120 min	> 13.5 h	> 6 h	–	–
